# Test results published in patent US10828253B2, “Composition for injection” (HK INNO.N CORPORATION, priority 2017, dated 2020).
# Assay: water solubility of the compound of Formula 1
# Format: physicochemical
# Experimental: However, the compound has a very low water solubility (0.02 mg/ml, pH 6.8), which increases (0.7 mg/ml, pH 3.0) under acid conditions, but not enough to have a significant effect. It is water insoluble and has a very low solubility, in particular, under neutral or higher pH environments, so it has a much difficulty in being formulated into preparations through its dissolution and stabilization in aqueous solutions. Also, its degradation products are increased under acid conditions, thus leading to poor stability and causing a restriction on selection of salts. Furthermore, in case of using solubilizers such as surfactants, etc., to improve the solubility, it requires an excessive amount of excipients, thus causing difficulty.
compound,measurement,setting,value
"Cc1nc2c(O[C@H]3CCOc4cc(F)cc(F)c43)cc(C(=O)N(C)C)cc2[nH]1 [Formula 1, (S)-4-((5,7-difluorochroman-4-yl)oxy)-N,N-2-trimethyl-1H-benzo[d]imidazole-6-carboxamide]",solubility,"aqueous buffer, pH 3.0, acid conditions",700 µg/mL
same,solubility,"pH 6.8, aqueous buffer",20 µg/mL
